Source: US20120231025A1 (priority 2009, published 2012)
Entries after “also recorded” stand apart in the source; their conditions may differ. Read-outs that look alike come from different tables or passages of the source.

Columns and labels:
[1] = system: bone marrow cells; conditions: bone marrow cells irradiated with 1 Gy, injected into lethally irradiated recipients (8 Gy); peptide 10 ug per kg intraperitoneally 15-30 minutes after the cells; cited from earlier work
[2] = system: hematopoietic cells; conditions: cited from earlier work
[3] = system: peripheral blood mononuclear cells (PBMC); test: MIMIC peripheral tissue equivalent (PTE) assay; format: cell-based, human
[4] = system: spleen and thymus; conditions: mice irradiated 2 Gy, peptide 10 μg/kg, cited from earlier work
[5] = system: T-cells in spleen; conditions: peptide 10 μg/kg, cited from earlier work
[6] = system: influenza antigen; format: in vivo, Balb/c mice
[7] = system: influenza of the H1N2, H3N2, and B strains; set-up: species or system Balb/c mice; conditions: mouse, in vivo
[8] = system: allogeneic lymphocytes; conditions: H-2d anti H-2b, cited from earlier work
[9] = system: antibody forming cells; conditions: cited from earlier work

Question: With Ala-Glu-Trp-OH as the substance, how does the “Number of CFU-S” value [1] read?
Answer: Its value is 8.7 ± 0.4.

Question: With Glu-Trp-OH as the substance, how does the “Number of CFU-S” value [1] read?
Answer: Its value is 10.5 ± 0.3.

Question: Which results are given for H-L-Ile-L-Glu-L-Trp-OH [Neogen]?
Answer: Hemoglobin levels ([2]; animals first irradiated and then treated, U.S. Pat. No. 6,159,950, Example 8): more rapidly restored hemoglobin levels; Antibody forming cells (AFC) after challenge with sheep erythrocytes ([2]; irradiated mice, U.S. Pat. No. 6,159,950, Example 4): making antibody forming cells (AFC) against the challenge; Number of CFU-S [1]: 11.5 ± 0.3; Cell-surface expression of HLA-DR on dendritic cells [3]: primed for antigen presentation; Dendritic cells migrating (reverse transmigrating) across the HUVEC layer ([3]; Neogen alone, preliminary): fewer dendritic cells migrating across the HUVEC layer; also recorded: reduced the number of cells found to reverse transmigrate; Number of dendritic cells recovered ([3]; Neogen alone, preliminary): did not; Number of dendritic cells recovered ([3]; Neogen in the presence of antigen, preliminary): increased the number of dendritic cells recovered from the system; Dendritic cells migrating (reverse transmigrating) across the HUVEC layer ([3]; Neogen plus antigen, preliminary): fewer dendritic cells migrating across the HUVEC layer; also recorded: reduced the number of cells found to reverse transmigrate; Differentiation of donor PBMCs into macrophages and dendritic cells ([3]; as little as 1 ug/mL of Neogen in the presence of antigen, preliminary): enhanced the ability of donor PBMCs to differentiate into macrophages and dendritic cells; Karyocyte count in thymus ([4]; 3 and 4 injections): a certain growth of the karyocyte count in thymus; Karyocyte count in spleen per mg of organ weight ([4]; one and four injections): increase in the karyocyte count in spleen; T-cell count ([5]; intact mice, 3 or 4 times): being the same as it was; T-cell count in spleen ([5]; mice irradiated 2 Gy, 1 to 4 injections, especially three or four): grew in all mice who received the peptide injections; IgG1 levels (area-under-the-curve analysis) ([6]; low-dose Neogen with Vaxigrip compared with Vaxigrip alone): statistically significant increase in IgG1 levels; IgG1 response ([6]; mouse, in vivo): progressively lower IgG1 responses; IgG2a response ([6]; mouse, in vivo): higher IgG2a responses; HI titer [7]: higher response than any of the other groups; also recorded: higher HI response; HI titer ([7]; sc): no HI titer; Proliferation of allogeneic lymphocytes in MLC ([8]; peptide 0.1 μg/mL): negligible inhibition of the proliferation; Proliferation of allogeneic lymphocytes in MLC ([8]; peptide 1, 10, and 20 μg/mL): stimulated proliferation of the allogeneic lymphocytes; AFC increase, humoral response to SE ([9]; intact mice, peptide 10 μg/kg intramuscularly, 3 or 4 times): 5 times; Number of antibody forming cells ([9]; mice irradiated 2 Gy, peptide 10 μg/kg, 3 and 4 injections): practically doubled

Question: For Ile-Glu-(Trp)-OH, which “Number of CFU-S” value [1] is on record?
Answer: The value was 8.5 ± 0.5.

Question: With Ile-Glu-Trp-NH2 as the substance, how does the “Number of CFU-S” value [1] read?
Answer: Its value is 7.9 ± 0.4.

Question: With Leu-Glu-Trp-OH as the substance, how does the “Number of CFU-S” value [1] read?
Answer: Its value is 6.5 ± 0.5.

Question: With Lys-Glu-(Trp)-OH as the substance, how does the “Number of CFU-S” value [1] read?
Answer: The value was 5.9 ± 0.5.

Question: With Lys-Glu-(Trp-NH2)-OH as the substance, how does the “Number of CFU-S” value [1] read?
Answer: Its value is 5.9 ± 0.4.

Question: Which “Number of CFU-S” value [1] does the source give for Lys-Glu-Trp-OH here?
Answer: Its value is 6.2 ± 0.4.

Question: For Phe-Glu-Trp-OH, which “Number of CFU-S” value [1] is on record?
Answer: The value was 6.6 ± 0.3.

Question: For Pyro-Glu-Trp-OH, which “Number of CFU-S” value [1] is on record?
Answer: The value was 9.3 ± 0.4.

Question: With Tyr-Glu-Trp-OH as the substance, how does the “Number of CFU-S” value [1] read?
Answer: Its value is 7.3 ± 0.4.

Question: With Val-Glu-Trp-OH as the substance, how does the “Number of CFU-S” value [1] read?
Answer: The value was 8.2 ± 0.3.

Question: With iGlu-Trp-OH as the substance, how does the “Number of CFU-S” value [1] read?
Answer: Its value is 10.1 ± 0.5.
